Source: US8501752B2, “Methods for treating cancer and other pathological proliferating disorders by inhibiting mitosis using pyrrolo[2,3-d]pyrimidines” (Duquesne University of the Holy Ghost, priority 2005, dated 2013)
“Also recorded” adds a separate entry of the source. Read-outs that look alike come from different tables or passages of the source.

Legend:
MCF-7/VP cells = test: Cytotoxicity, MCF-7/VP cells that overexpress MRP1; conditions: for Resistance (MCF-7/VP relative to MCF-7): MRP1
From the text: (§2) These cell lines are resistant to anticancer drugs due to overexpression of the transport proteins P-glycoprotein or MRP1.

[1] = test system: T24, MCF-7, NCI/ADR, MCF-7/VP; test: Cytotoxicity, panel of human tumor cell lines of Table 3 (text summaries)
From the text: as §2

NCI/ADR cells = test: Cytotoxicity, NCI/ADR cells that overexpress P-glycoprotein; conditions: for Resistance (NCI/ADR relative to MCF-7): P-glycoprotein
From the text: as §2

MCF-7 cells = test: Cytotoxicity, drug-sensitive MCF-7 cells
From the text: as §2

[2] = test system: HL-60 human promyelocytic leukemia cells; test: Flow cytometric cell cycle phase distribution; format: cell-based; conditions: 24 hours treatment; for increase of the percentage of cells in the G2/M phases: HL-60; for cell cycle distribution, G2/M / cell cycle distribution, G9/G1 / cell cycle distribution, S: percentage of HL-60 cells
Protocol: Flow cytometric analyses were used to assess the effects of Compound 1 and various antimicrotubule drugs on the cell cycle phase distributions of HL-60 human promyelocytic leukemia cells. The percentage of cells in the G2/M phases were increased approximately 2-fold by treatment of the cells for 24 hours with either TAXOL (paclitaxel), vinblastine, colchicine, or Compound 1.

P-glycoprotein = biological target: T1, P-glycoprotein (Homo sapiens, UniProt P08183); test: P-glycoprotein antagonism: sensitivity of NCI/ADR cells to vinblastine; format: cell-based; conditions: for effect on P-glycoprotein-mediated resistance (in words): absence or presence of 50 nM vinblastine
T1 construct: NCI/ADR cells that overexpress P-glycoprotein; endogenous in cells; host or cells: NCI/ADR cells
From the text: To determine if this is due to inhibition of drug transport activity by these proteins, the effects of these compounds on P-glycoprotein were further characterized. The effects of the compounds on the sensitivity of NCI/ADR cells to vinblastine and of MCF-7/VP cells to vincristine were examined to evaluate antagonism of P-glycoprotein and MRP1, respectively. FIGS. 4a-b present graphs of antagonism score versus concentration for P-glycoprotein and MRP1, respectively.
The Pgp antagonism score is calculated as the percentage survival of cells in the absence of vinblastine/percentage survival in the presence of vinblastine. […] The MRP1 antagonism score is calculated as the percentage survival of cells in the absence of vincristine/percentage survival in the presence of vincristine. […] Concentrations of Compounds 1-5 above their IC50 toward MCF-7 cells are not indicated. Data for one of three similar experiments is shown.

[3] = test system: T24 human bladder carcinoma cells; test: Cytotoxicity, T24 cells; format: cell-based; conditions: for IC50: mean ± SEM for 3 experiments
[4] = test system: NCI 60 human tumor cell lines; test: NCI IVCLSP growth inhibition, whole panel (text summaries); format: cell-based; conditions: NCI 60 tumor panel
Protocol: FIG. 1 presents nine compounds that were tested using the National Cancer Institute (NCI) 60 human tumor cell lines. The cells lines, which represent leukemia, melanoma, and cancers of the lung, colon, brain, ovary, breast, prostate, and kidney, are listed in Table 1.
Compounds 1-9 were tested according to the NCI Developmental Therapeutics Program (DTP) In Vitro Cell Line Screening Project (IVCLSP). […] Methodology for testing under the IVCLSP is as follows: The human tumor cell lines of the cancer screening panel are grown in RPMI 1640 medium containing 5% fetal bovine serum and 2 mM L-glutamine. For a typical screening experiment, cells are inoculated into 96 well microtiter plates in 100 μL at plating densities ranging from 5,000 to 40,000 cells/well depending on the doubling time of individual cell lines. After cell inoculation, the microtiter plates are incubated at 37° C., 5% CO2, 95% air and 100% relative humidity for 24 h prior to addition of experimental drugs.
After 24 h, two plates of each cell line are fixed in situ with TCA, to represent a measurement of the cell population for each cell line at the time of drug addition (Tz). Experimental drugs are solubilized in dimethyl sulfoxide at 400-fold the desired final maximum test concentration and stored frozen prior to use. At the time of drug addition, an aliquot of frozen concentrate is thawed and diluted to twice the desired final maximum test concentration with complete medium containing 50 μg/ml gentamicin. Additional four, 10-fold or ½ log serial dilutions are made to provide a total of five drug concentrations plus control. Aliquots of 100 μl of these different drug dilutions are added to the appropriate microtiter wells already containing 100 μl of medium, resulting in the required final drug concentrations.
Following drug addition, the plates are incubated for an additional 48 h at 37° C., 5% CO2, 95% air, and 100% relative humidity. For adherent cells, the assay is terminated by the addition of cold TCA. Cells are fixed in situ by the gentle addition of 50 μl of cold 50% (w/v) TCA (final concentration, 10% TCA) and incubated for 60 minutes at 4° C. The supernatant is discarded, and the plates are washed five times with tap water and air dried. Sulforhodamine B (SRB) solution (100 μl) at 0.4% (w/v) in 1% acetic acid is added to each well, and plates are incubated for 10 minutes at room temperature. After staining, unbound dye is removed by washing five times with 1% acetic acid and the plates are air dried. Bound stain is subsequently solubilized with 10 mM trizma base, and the absorbance is read on an automated plate reader at a wavelength of 515 nm. For suspension cells, the methodology is the same except that the assay is terminated by fixing settled cells at the bottom of the wells by gently adding 50 μl of 80% TCA (final concentration, 16% TCA). Using the seven absorbance measurements [time zero, (Tz), control growth, (C), and test growth in the presence of drug at the five concentration levels (Ti)], the percentage growth is calculated at each of the drug concentrations levels. Percentage growth inhibition is calculated as: [(Ti−Tz)/(C−Tz)]×100 for concentrations for which Ti>/=Tz [(Ti−Tz)/Tz]×100 for concentrations for which Ti<Tz.
Three dose response parameters are calculated for each experimental agent. […] The drug concentration resulting in total growth inhibition (TGI) is calculated from Ti=Tz. […]

p53 = test: Western blot, p53 expression in MCF-7 cells; format: cell-based, human; conditions: 24 hours, various concentrations
Protocol: (§1) To further characterize the cell cycle effects of Compound 1 on human tumor cells, MCF-7 cells were treated for 24 hours with various concentrations of Compound 1, vinblastine, or TAXOL (paclitaxel). Cells were then harvested, lysed, and analyzed for levels of expression of p53 and WAF1 by Western Blot analyses. […] Compound 1 is identified as “149” in these figures. […] None of these treatments affected the expression of bcl-2 or P-tubulin in the MCF-7 cells.

[5] = test system: A-10 rat smooth muscle cells; test: Microtubule structure, indirect immunofluorescence, A-10 cells; format: cell-based; conditions: 24 hours; 625 nM TAXOL, 167 nM vinblastine, 900 nM Compound 1
Protocol: Because of the morphological effects of Compound 1 on cultured cells and the NCI COMPARE analysis results described above, the effects of vinblastine, TAXOL (paclitaxel), and Compound 1 on microtubule structure were examined. For these studies, A-10 rat smooth muscle cells were used since they grow as flat monolayers that are amenable to imaging. The A-10 cells were treated for 24 hours with EtOH (control), 625 nM TAXOL (paclitaxel), 167 nM vinblastine, and 900 nM of Compound 1. Microtubules were then visualized by indirect immunofluoresence staining with B-tubulin antibodies. FIGS. 2a-d present representative fields for the control, TAXOL (paclitaxel), vinblastine, and Compound 1 (“149”), respectively. None of these compounds affected the morphology of stress fibers composed of microfilaments.

WAF1 = test: Western blot, WAF1 expression in MCF-7 cells; format: cell-based, human; conditions: 24 hours, various concentrations
Protocol: as §1

[6] = Homo sapiens, MCF7-VP, read-out: drug sensitivity (IC50), MCF-7/VP
[7] = Homo sapiens, NCI/ADR-RES, read-out: drug sensitivity (IC50), NCI/ADR
[8] = Homo sapiens, MCF7, read-out: drug sensitivity (IC50), MCF-7
[9] = read-out: Cytotoxicity IC50, MCF-7/VP, mean ± SEM for 3 experiments
[10] = read-out: Cytotoxicity IC50, NCI/ADR, mean ± SEM for 3 experiments
[11] = read-out: Cytotoxicity IC50, MCF-7, mean ± SEM for 3 experiments

T1 sequence (P08183 whole entry): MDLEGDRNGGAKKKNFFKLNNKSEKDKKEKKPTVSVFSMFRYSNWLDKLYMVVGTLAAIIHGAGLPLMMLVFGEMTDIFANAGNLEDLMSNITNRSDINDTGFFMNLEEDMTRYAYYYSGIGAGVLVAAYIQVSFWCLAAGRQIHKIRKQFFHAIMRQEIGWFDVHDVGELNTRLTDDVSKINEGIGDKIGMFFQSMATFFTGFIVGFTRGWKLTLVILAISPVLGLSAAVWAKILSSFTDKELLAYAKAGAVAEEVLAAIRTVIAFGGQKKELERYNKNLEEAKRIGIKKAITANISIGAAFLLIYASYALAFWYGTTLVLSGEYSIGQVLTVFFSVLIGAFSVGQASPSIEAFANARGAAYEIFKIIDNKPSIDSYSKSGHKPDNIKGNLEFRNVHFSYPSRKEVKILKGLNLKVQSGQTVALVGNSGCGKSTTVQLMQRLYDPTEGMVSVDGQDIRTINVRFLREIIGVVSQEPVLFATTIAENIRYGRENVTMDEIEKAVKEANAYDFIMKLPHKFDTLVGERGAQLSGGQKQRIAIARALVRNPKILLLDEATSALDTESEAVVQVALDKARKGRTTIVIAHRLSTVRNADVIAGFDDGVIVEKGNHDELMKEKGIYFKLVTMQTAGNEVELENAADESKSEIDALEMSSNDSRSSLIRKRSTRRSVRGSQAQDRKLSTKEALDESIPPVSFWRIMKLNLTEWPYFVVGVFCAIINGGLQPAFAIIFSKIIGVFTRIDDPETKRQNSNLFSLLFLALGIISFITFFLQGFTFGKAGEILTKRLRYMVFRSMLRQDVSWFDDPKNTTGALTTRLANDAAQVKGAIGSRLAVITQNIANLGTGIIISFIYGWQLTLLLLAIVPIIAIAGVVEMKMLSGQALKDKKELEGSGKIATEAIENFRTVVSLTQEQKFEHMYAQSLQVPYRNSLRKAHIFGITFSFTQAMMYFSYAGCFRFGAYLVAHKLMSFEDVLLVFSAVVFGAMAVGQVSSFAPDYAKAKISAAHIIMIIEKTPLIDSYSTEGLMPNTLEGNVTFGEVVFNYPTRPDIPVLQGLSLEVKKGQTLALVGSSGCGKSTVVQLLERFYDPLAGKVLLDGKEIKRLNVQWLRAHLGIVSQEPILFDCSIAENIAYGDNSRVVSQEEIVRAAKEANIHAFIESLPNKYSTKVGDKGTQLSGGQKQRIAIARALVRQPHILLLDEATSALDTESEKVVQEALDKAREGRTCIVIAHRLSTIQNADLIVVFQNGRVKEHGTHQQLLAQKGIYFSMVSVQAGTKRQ

Row | Structure (SMILES) | Resistance (MCF-7/VP relative to MCF-7) (MCF-7/VP cells) | effect of P-glycoprotein / MRP1 overexpression on cell sensitivity (in words) [1] | Resistance (NCI/ADR relative to MCF-7) (NCI/ADR cells) | increase of the percentage of cells in the G2/M phases [2] | cell cycle distribution, G2/M [2] | cell cycle distribution, G9/G1 [2] | cell cycle distribution, S [2] | IC50 (MCF-7/VP cells; [6]) [nM] | IC50 (NCI/ADR cells; [7]) [nM] | IC50 (MCF-7 cells; [8]) [nM] | IC50 (MCF-7/VP cells; [9]) [nM] | effect on P-glycoprotein-mediated resistance (in words) (P-glycoprotein) | IC50 (NCI/ADR cells; [10]) [nM] | IC50 [3] [nM] | IC50 (MCF-7 cells; [11]) [nM] | other results
1 | N.N.[Cl][Pt][Cl] [Cisplatin, cisplatin, reference compound] | 0.6 | insensitive to transporter expression | 1.1 |  |  |  |  |  |  |  |  |  |  |  |  | IC50 (MCF-7/VP cells; read-out: drug sensitivity (IC50), MCF-7/VP, Table 4, MRP1 overexpressing, mean ± SEM for 3 experiments): 7000 ± 2900 nM; IC50 (NCI/ADR cells; read-out: drug sensitivity (IC50), NCI/ADR, Table 4, P-glycoprotein overexpressing, mean ± SEM for 3 experiments): 12200 ± 4200 nM; IC50 (MCF-7 cells; read-out: drug sensitivity (IC50), MCF-7, Table 4, mean ± SEM for 3 experiments): 11500 ± 4100 nM
2 | COc1cc2c(c(OC)c1OC)-c1ccc(OC)c(=O)cc1[C@@H](NC(C)=O)CC2 [Colchicine, colchicine] |  |  |  | approximately 2 fold | 11.9 ± 0.3 | 84.1 ± 0.7 | 4.0 ± 1.4 |  |  |  |  |  |  |  |  | 
3 | CC[C@]1(O)C[C@H]2CN(CCc3c([nH]c4ccccc34)[C@@](C(=O)OC)(c3cc4c(cc3OC)N(C=O)[C@H]3[C@@](O)(C(=O)OC)[C@H](OC(C)=O)[C@]5(CC)C=CCN6CC[C@]43[C@@H]65)C2)C1 [Vincristine, vincristine, reference compound] | 15.5 | overexpression of MRP1 also confers substantial resistance | 167 |  |  |  |  | 9.3 ± 1.4 | 100 | 0.6 ± 0.1 |  |  |  |  |  | 
4 | COc1ccc(CCc2cn(Cc3ccccc3)c3nc(N)nc(C)c23)cc1 [Compound 2] |  |  |  |  |  |  |  |  |  |  | 22700 ± 3700 | dose-dependent sensitization | 21700 ± 4400 | 31700 ± 1700 | 13000 ± 3500 | change of cytotoxic potency by substitution (in words) ([3]; T24, relative to unsubstituted Compound 5): decreased the cytotoxic potency
5 | Cc1nc(N)nc2c1c(CCc1ccccc1)cn2Cc1ccccc1 [Compound 5] |  |  |  |  |  |  |  |  |  |  | 118000 ± 6000 | dose-dependent sensitization | 18200 ± 7400 | 12700 ± 2300 | 10700 ± 4700 | GI50 values, level across the tumor cell lines (in words) [4]: millimolar or less range for 52 of the tumor cell lines; also recorded: micromolar GI50 values for three of the tumor cell lines
6 | CC[C@]1(O)C[C@@H]2CN(CCc3c([nH]c4ccccc34)[C@@](C(=O)OC)(c3cc4c(cc3OC)N(C)[C@H]3[C@@](O)(C(=O)OC)[C@H](OC(C)=O)[C@]5(CC)C=CCN6CC[C@]43[C@@H]65)C2)C1 [Vinblastine, vinblastine] | 1.1 |  | >134 | approximately 2 fold | 10.1 ± 0.3 | 83.3 ± 1.3 | 6.6 ± 1.6 | 3 ± 0.6 | > 375 | 2.8 ± 0.5 |  |  |  |  |  | level of expression of p53 (in words) (p53): marked increases; effect on microtubule structure (in words) [5]: caused marked depletion of cellular microtubules; level of expression of WAF1 (in words) (WAF1): marked increases
7 | COc1ccccc1CCc1cn(Cc2ccccc2)c2nc(N)nc(C)c12 [Compound 4] |  | eliminated any resistance due to overexpression of either P-glycoprotein or MRP1 |  |  |  |  |  |  |  |  | 2600 ± 100 | dose-dependent sensitization | 2700 ± 400 | 2500 ± 300 | 2300 ± 600 | more potent than the others in reversing P-glycoprotein-mediated resistance (P-glycoprotein; 50 nM vinblastine): approximately 10 fold; effect on P-glycoprotein-mediated resistance (in words) (P-glycoprotein; listed as 2-OMe analog): effective at reversing P-glycoprotein mediated resistance; GI50 values, level across the tumor cell lines (in words) [4]: micromolar to millimolar range; cytotoxic potency, better than the 3- or 4-OMe [1]: about 10 times; cytotoxic potency, better than the unsubstituted phenyl analog Compound 5 [1]: ~5 times; less potent as an antimitotic agent than the 3,4,5-triOMe analog [1]: about 10 times; cytotoxic potency (in words) ([1]; all tested cell lines): substantially increased the potency toward all of the tested cell lines
8 | CC(=O)O[C@H]1C(=O)[C@@]2(C)[C@H]([C@H](OC(=O)c3ccccc3)[C@]3(O)C[C@H](OC(=O)[C@H](O)[C@@H](NC(=O)c4ccccc4)c4ccccc4)C(C)=C1C3(C)C)[C@]1(OC(C)=O)CO[C@@H]1C[C@@H]2O [TAXOL (paclitaxel), paclitaxel] | 1.1 |  | 1080 | approximately 2 fold | 10.5 ± 0.1 | 67.3 ± 0.4 | 22.2 ± 0.4 | 2.8 ± 0.6 | 2700 ± 500 | 2.5 ± 0.6 |  |  |  |  |  | level of expression of p53 (in words) (p53): marked increases; effect on microtubule structure (in words) [5]: promoted increased staining of microtubule clusters; level of expression of WAF1 (in words) (WAF1): marked increases
